In general, hepatocyte CLint refers to the capacity of the preparation to metabolise the compound, expressed as a volume cleared per time. Broadly, the IC50 is the midpoint of a concentration-inhibition curve.

Structures are written as SMILES. A value given as a limit tells only on which side of the number the result lay.

Series [1] in a line: Metabolic stability in hepatocytes. It is filed as in vitro ADME, cynomolgus monkey. The following applies: for Remaining Percentages: monkey hepatocytes.
Method: Microsome stability was assessed in duplicate (n = 2) in the presence and absence of nicotinamide adenine dinucleotide phosphate (NADPH) with liver microsomes (0.5 mg/mL) from human (BD Gentest) and Sprague-Dawley rats (BD Gentest). Compounds were incubated in liver microsomes at 1 μM and samples (30 μL) were taken at 0.5, 15, 30, 45, and 60 min time points for analysis by LC-MS/MS. Hepatocyte stability was assessed in duplicate (n = 2) at a working cell density of 0.5 × 10^6 cells/mL with hepatocytes from human (BiolVT), Sprague-Dawley rat (BiolVT), cynomolgus monkey (RILD) or beagle dog (BiolVT). […] The in vitro half-life and intrinsic clearances were determined as previously described.[76]
In vitro half-life (in vitro t1/2) was determined from the slope value in [drawing 1] where k was determined by linear regression of the natural logarithm of the remaining percentage of the parent drug vs the incubation time curve.
Series [2] concerns the target T1, ERBB2 (HER2) (Homo sapiens, UniProt P04626).
T1 construct: purchased Eurofins DiscoverX (KINOMEScan service)
The experiment in a line: KINOMEScan. In kind it is binding. The following applies: read-out: Percent Control.
From the text: (§2) Percent control was mapped onto the kinome tree using TREEspot.

The target of series [3] is T2, CYP1A2 (Homo sapiens, UniProt P05177).
T2 construct: tissue BD Gentest; host or cells: pooled human liver microsomes
The experiment in a line: CYP450 inhibition in human liver microsomes. It is filed as in vitro ADME. On the technique in general: Liver microsomes are a subcellular fraction often used to study metabolism.
Method: The activities tested were CYP1A2-mediated phenacetin O-demethylation, CYP2C19-mediated (S)-mephenyotin 4′-hydroxylation, CYP2C9-mediated diclofenac 4′-hydroxylation, CYP2D6-mediated dextromethorphan O-demethylation, and CYP3A4-mediated midazolam 1′-hydroxylation. […] The reactions were initiated by adding NADPH (1 mM final concentration) after a 5 min preincubation, and the assay was run in duplicate (n = 2). Samples were analyzed by ultra-performance liquid chromatography tandem mass spectrometry (UPLC-MS/MS).

Series [4] relates to luciferase-tagged HCC827 cells implanted into the brains. Put plainly: Intracranial PDX model. In kind it is in vivo, BALB/c nude mice. The following applies: 10 mg/kg PO b.i.d. As for the experimental part: Animal experiments were performed at Pharmaron, Inc. and animal use was approved by Pharmaron’s Institutional Animal Care and Use Committee (IACUC) in Pharmaron (Pharmaron IACUC, Protocol #PK-M-07182022, #PK-R-06012022, and #ON-CELL-XEN-06012022) following the guidance of AAALAC. Six- to eight-week-old male Sprague-Dawley rats (approximately 200–300 g) obtained from Si Bei Fu Laboratory Animal Technology Co., six- to eight-week-old male CD1 mice (approximately 20–30 g) obtained from Si Bei Fu Laboratory Animal Technology Co., and six- to eight-week-old female BALB/c nude mice (approximately 20–30 g) obtained from Si Bei Fu Laboratory Animal Technology Co., were used in the pharmacokinetic studies. Six- to eight-week-old female BALB/c nude mice (approximately 18–22 g) obtained from Beijing Anikeeper Biotech Co., Ltd. were used in the intracranial PDX study. Animals were housed at 20–25 °C with humidity ranging from 40 to 70% relative humidity, were exposed to 12 h light and dark cycles, and were supplied with food and water ab libitum.
HCC827 cells stably expressing luciferase (HCC827-luc) were injected intracranially. Briefly, 3 × 10^5 HCC827-luc tumor cells suspended in 2 μL of RPMI1640 medium were injected into the right forebrain of anesthetized mice (anesthetic: intramuscular injection of ZoletlTM 50 (Virbac S.A)). Mice were imaged biweekly using IVIS Lumina III (PerkinElmer). Images were acquired 10 min post intraperitoneal (IP) injection with 15 mg/mL (at 5 μL/g body weight) of D-luciferin in anesthetized mice (anesthetic: 1–2% isoflurane inhalation). On day 20 postcellular inoculation, mice were randomized into 2 treatment groups (n = 10 mice per group): (1) 1% methylcellulose as vehicle control and (2) 9 (10 mg/kg) (formulation: 1% methylcellulose), PO, b.i.d. (twice daily) dosing (12 h intervals) × 7 days for 21 days. Body weights of all mice were measured biweekly throughout the study and BW change, expressed in % was calculated using the following formula: [drawing 5] where BWDay X is the BW on a given day and BWDay 0 is BW on day 0 (initiation of treatment).

For series [5], the target named is T3, ERBB4 (Homo sapiens, UniProt Q15303).
T3 construct: purchased Eurofins Cerep (KinaseProfiler, contract assay)
The experiment in a line: KinaseProfiler enzymatic radiometric assay. In kind it is biochemical. The following applies: read-out: Kinase IC50. Here is the method: (§1) In vitro kinase activity (inhibitor binding constants (Kd) and biochemical inhibition (IC50’s)) were assessed by Eurofins DiscoverX (Kd determinations) and Eurofins Cerep (biochemical IC50 determinations).

Series [6] concerns the target T4, LYN (Homo sapiens, UniProt P07948).
T4 construct: purchased Eurofins DiscoverX (contract assay)
The experiment in a line: KinaseProfiler enzymatic radiometric assay. In kind it is biochemical. The following applies: read-out: Kinase IC50. As for the experimental part:
as §1

In series [7] the test system is HER2+ breast cancer cell lines. Put plainly: CellTiter-Glo cell viability assay. The following applies: Homo sapiens; range over cell lines; read-out: IC50's in HER2+ breast cancer cell lines. In kind it is cell-based. As for the experimental part:
The A431, HCC827, SK-BR-3, ZR-75–30, AU565, and Caco-2 cell lines were obtained from ATCC. The NCI-H1975 cell line was obtained from SIBS. The NCI-H3255 cell line was obtained from CoBioer. Engineered Ba/F3 cell lines were obtained from Crown Bioscience. MCKII-MDR1 cells were obtained from The Netherlands Cancer Institute. HEK293 cells were obtained from Invitrogen. A431 cells were cultured in DMEM (Life Technologies) with 10% FBS. HCC827, NCI-H1975, and AU565 cells were cultured in RPMI1640 (Invitrogen) with 10% FBS. NCI-H3255 cells were cultured in BEGM (Lonza) with 10% FBS. Ba/F3 EGFR-del E746_A750/C797S and Ba/F3 EGFR-L858R/C797S cells were cultured in RPMI (Invitrogen) with 10% FBS. SK-BR-3 cells were cultured in McCoy’s 5a (Invitrogen) with 10% FBS. ZR-75-30 cells were cultured in RPMI1640 (Invitrogen) with 20% FBS. Caco-2 and MCKII-MDR1 culture information is given in the Permeability Studies section. HEK293 cells were cultured in DMEM (Gibco) with 10% FBS, 0.1 mM NEAA, 25 mM HEPES, 100 U/mL penicillin-streptomycin, μg/mL blasticidin, and 400 μg/mL Geneticin. All cells were cultured in a humidified incubator with 5% CO2 at 37 °C.
Viability assays using A431, HCC827, NCI-H1975, NCI-H3255, Ba/F3 EGFR-del E746_A750/C797S, Ba/F3 EGFR-L858R/C797S, AU565, SK-BR-3, and ZR-75-30 cells were performed at Crown BioScience. Cells were plated into 96-well plates at 1500–7000 cells per well and dosed in triplicate (n = 3) in a nine-point, 4-fold dilution series with compounds (0.15 nM to 10 μM) in DMSO and incubated for 72 h. After 72 h, cell viability was assayed by CellTiter-Glo Luminescent Viability Assay (Promega). Dose–response curves were generated and used to calculate the IC50 values which were calculated on GraphPad Prism from the nonlinear regression equation fitted with a sigmoidal dose response and are presented as mean ± SEM.
On the technique in general: ATP-based viability assays read luminescence as a measure of living cells.

Series [8] has as its target T5, ABL1(H396P)-nonphosphorylated (Homo sapiens, UniProt P00519, H396P).
T5 construct: purchased Eurofins DiscoverX
The experiment in a line: KINOMEScan. It is filed as binding. The following applies: read-out: Percent Control.
From the text: as §2

T3 sequence (Q15303 26-1308): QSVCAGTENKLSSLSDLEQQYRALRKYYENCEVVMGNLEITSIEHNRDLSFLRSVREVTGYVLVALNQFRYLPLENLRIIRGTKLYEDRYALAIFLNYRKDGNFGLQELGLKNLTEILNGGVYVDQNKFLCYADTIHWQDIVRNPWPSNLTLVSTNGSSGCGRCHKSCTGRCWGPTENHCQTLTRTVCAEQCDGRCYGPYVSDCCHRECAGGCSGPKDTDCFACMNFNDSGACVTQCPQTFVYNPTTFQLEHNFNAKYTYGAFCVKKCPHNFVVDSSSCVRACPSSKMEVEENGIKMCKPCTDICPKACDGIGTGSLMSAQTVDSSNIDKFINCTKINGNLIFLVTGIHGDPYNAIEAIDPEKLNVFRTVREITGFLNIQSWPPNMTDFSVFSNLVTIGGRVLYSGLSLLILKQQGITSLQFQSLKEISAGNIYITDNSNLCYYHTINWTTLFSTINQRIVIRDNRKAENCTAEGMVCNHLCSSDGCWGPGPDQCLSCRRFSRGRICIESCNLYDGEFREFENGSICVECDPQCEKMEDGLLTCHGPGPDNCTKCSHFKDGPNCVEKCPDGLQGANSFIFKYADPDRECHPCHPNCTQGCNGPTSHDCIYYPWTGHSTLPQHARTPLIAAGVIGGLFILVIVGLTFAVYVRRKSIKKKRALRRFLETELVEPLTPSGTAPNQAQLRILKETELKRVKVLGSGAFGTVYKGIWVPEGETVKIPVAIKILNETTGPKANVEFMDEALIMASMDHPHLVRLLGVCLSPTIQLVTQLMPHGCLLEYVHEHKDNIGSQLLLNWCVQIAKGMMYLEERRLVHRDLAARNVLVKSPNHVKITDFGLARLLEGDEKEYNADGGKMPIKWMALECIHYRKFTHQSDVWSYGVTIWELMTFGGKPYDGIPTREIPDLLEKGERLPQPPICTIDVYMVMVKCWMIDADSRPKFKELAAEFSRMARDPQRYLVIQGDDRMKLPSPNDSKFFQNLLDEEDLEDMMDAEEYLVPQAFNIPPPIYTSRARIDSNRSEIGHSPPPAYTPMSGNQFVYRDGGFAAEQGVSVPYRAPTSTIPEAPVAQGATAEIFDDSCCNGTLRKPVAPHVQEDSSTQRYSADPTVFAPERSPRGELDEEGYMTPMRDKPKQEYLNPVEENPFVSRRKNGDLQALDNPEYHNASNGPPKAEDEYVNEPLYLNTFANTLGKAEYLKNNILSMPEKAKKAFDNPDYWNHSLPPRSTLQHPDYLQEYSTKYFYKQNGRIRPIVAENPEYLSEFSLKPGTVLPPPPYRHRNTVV
T2 sequence (P05177 whole entry): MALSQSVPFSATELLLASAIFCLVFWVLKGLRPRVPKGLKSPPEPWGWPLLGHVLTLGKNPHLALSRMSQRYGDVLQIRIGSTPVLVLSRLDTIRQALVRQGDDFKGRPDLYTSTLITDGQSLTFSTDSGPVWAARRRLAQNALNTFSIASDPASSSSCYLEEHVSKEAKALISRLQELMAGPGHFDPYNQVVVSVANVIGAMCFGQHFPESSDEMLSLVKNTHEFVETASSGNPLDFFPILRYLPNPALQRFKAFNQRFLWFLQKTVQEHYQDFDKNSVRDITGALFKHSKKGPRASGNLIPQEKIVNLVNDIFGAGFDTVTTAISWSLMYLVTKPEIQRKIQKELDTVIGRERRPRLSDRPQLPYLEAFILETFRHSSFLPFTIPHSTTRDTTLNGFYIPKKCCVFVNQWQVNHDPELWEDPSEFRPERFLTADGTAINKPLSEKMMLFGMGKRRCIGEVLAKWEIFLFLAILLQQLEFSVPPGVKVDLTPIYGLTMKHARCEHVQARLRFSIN
T4 sequence (P07948 whole entry): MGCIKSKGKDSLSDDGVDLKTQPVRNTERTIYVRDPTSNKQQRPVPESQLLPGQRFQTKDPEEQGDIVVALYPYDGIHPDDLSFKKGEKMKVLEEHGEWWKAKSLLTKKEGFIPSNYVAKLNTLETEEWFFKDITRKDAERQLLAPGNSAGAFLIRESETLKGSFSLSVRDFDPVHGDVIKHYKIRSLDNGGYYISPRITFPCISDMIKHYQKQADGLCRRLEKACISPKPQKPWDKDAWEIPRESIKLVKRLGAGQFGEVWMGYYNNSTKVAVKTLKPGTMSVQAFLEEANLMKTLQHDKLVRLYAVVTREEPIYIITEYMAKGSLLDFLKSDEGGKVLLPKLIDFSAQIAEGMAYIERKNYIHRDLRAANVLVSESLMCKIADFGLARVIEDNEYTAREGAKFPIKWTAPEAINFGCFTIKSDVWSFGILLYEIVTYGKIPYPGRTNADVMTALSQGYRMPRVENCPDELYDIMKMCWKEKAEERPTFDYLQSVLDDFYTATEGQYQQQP
T1 sequence (P04626 23-1255): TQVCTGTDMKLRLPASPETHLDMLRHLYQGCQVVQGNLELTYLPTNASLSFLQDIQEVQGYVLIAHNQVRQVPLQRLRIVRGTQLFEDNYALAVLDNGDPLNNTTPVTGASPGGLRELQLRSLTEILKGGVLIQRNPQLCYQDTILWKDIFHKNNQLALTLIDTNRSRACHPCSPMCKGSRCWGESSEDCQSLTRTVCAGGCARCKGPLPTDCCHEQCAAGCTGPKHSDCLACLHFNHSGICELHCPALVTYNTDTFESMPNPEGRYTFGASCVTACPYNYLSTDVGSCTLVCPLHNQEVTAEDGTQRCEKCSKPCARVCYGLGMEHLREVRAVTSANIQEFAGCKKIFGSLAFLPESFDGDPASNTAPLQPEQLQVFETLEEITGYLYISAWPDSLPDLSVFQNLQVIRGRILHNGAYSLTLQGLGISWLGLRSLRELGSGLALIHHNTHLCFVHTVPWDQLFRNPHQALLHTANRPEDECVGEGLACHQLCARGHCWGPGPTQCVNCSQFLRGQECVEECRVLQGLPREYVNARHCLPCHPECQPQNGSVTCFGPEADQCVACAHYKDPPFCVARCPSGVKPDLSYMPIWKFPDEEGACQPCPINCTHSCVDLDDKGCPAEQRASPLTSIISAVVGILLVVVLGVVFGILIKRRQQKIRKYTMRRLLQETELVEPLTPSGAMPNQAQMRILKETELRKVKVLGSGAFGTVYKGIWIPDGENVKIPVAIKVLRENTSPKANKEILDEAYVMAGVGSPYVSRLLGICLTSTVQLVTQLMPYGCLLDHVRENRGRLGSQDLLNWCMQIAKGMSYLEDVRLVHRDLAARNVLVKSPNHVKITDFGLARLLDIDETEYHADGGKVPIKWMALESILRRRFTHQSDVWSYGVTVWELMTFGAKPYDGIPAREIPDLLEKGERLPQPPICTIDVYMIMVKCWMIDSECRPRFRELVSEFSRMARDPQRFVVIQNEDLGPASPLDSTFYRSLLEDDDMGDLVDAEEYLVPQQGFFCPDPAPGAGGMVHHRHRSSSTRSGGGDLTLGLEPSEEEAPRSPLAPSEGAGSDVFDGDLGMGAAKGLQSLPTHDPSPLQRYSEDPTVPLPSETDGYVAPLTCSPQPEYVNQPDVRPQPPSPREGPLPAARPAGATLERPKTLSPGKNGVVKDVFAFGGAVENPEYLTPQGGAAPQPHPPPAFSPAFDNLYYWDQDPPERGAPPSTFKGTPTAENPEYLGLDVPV

The compound `COc1cc2ncnc(Nc3cccc(Cl)c3F)c2cc1OCCON1CCN(C)CC1` [Compound 9, N-(3-Chloro-2-fluorophenyl)-7-methoxy-6-(2-((4-methylpiperazin-1-yl)oxy)ethoxy)quinazolin-4-amine] yielded a hepatocyte CLint at 2 h, 1 µM in series [1] (cynomolgus monkey, hepatocytes) of 29 µL/min/1e6 cells. In addition, the “Remaining Percentages” value in series [1] (15 min) is 49.08%; in series [1] (30 min), 30.35%; in series [1] (60 min), 13.17%; in series [1] (90 min) it was 4.27%; in series [1] (120 min), “BLOD”. In addition, the remaining binding at 1 µM turned out to be 0.45% in series [2] and 1% in series [8]. In addition, the IC50 in series [3] is > 30000 nM; in series [5], 330 nM; in series [6] it was 58 nM; in series [7] it was 990 to 1600 nM. The “mean body weight loss” value in series [4] (21-day treatment window) is on record as ≤ 10%. The adverse clinical events result in series [4] (21 days) is recorded as “no adverse clinical events were observed”. Besides, the “intracranial tumor response relative to vehicle control (bioluminescence)” value in series [4] (21 days, P = 0.0059) is “profound tumor regression”.

Source of the values: paper PMC10683025, “Discovery of a Hydroxylamine-Based Brain-Penetrant EGFR Inhibitor for Metastatic Non-Small-Cell Lung Cancer” (Journal of Medicinal Chemistry, 2023).
